We go through 1 compound from US20150184166A1 (Uinversity of Iowa Research Foundation, priority 2012, published 2015).

The target in experiment [1] is T1, NdmA-His6 (Pseudomonas putida, UniProt H9N289).
T1 sequence (H9N289 1-351): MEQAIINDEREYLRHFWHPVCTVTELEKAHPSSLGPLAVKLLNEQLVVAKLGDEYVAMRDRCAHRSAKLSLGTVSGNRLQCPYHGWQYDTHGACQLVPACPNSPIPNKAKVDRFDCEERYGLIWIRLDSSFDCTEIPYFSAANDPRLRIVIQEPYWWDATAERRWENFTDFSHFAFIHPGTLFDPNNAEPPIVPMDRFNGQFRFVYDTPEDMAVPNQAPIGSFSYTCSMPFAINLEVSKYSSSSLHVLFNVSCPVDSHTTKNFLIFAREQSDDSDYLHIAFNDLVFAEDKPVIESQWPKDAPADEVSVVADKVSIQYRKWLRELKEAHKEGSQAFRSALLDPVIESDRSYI
Briefly: Kinetic parameters of NdmA-His6 with His6-NdmD. Format: biochemical, Pseudomonas putida CBB5. As for the experimental part:
(§1) Methylxanthine N-demethylase activity assay contained, in 1-ml total volume, 0.5 mM methylxanthine, 1 mM NADH, 50 μM Fe(NH4)2(SO4)2, and an appropriate amount of NdmA-His6 or NdmB-His6 (7.4 μg-2.5 mg protein depending on substrate specificity) in 50 mM KPi buffer (pH 7.5). Approximately 4 U of partially purified reductase, prepared as described previously (Summers et al., 2011) or 59 U of purified His6-NdmD was added to reaction mixture. Catalase from bovine liver (4,000 U) was also added to reactions containing His6-NdmD. The reaction mixture was incubated at 30° C. with 300 rpm shaking on an incubating microplate shaker (VWR, Radnor, Pa.). Periodically, a small aliquot was sampled from the reaction mixture and mixed with equal volume of acetonitrile for quantifying concentrations of methylxanthines and N-demethylated products by HPLC. One unit of N-demethylase activity was defined as the consumption of one […] methylxanthine per minute.
(§2) Apparent kinetic parameters of NdmA-His6 and NdmB-His6 were determined by measuring the initial rate of disappearance (vo) of methylxanthines in 50 mM KPi buffer (pH 7.5) at 30° C. The initial substrate concentrations ([S]) used in these experiments were from 25 to 500 μM. Substrates were incubated with His6-NdmD plus either NdmA-His6 or NdmB-His6 under standard conditions for 15 minutes. At 1, 5, 10, and 15 minutes, samples were removed from the reaction mixtures to quantitate substrate concentrations by HPLC. Plots of substrate concentrations against time were used to determine the initial rates of disappearance of substrates which were linear over 15 minutes. The apparent kinetic parameters were determined from Michaelis-Menten plots of vo against [S] fitted with the equation

Experiment [2] deals with NdmB-His6 (Pseudomonas putida, UniProt H9N290). Briefly: Kinetic parameters of NdmB-His6 with His6-NdmD. The format is biochemical, Pseudomonas putida CBB5. As for the experimental part:
as §1, §2

The test system of experiment [3] is NdmC. Description: N-demethylation by NdmC fraction co-purified with reductase. Format: biochemical, Pseudomonas putida CBB5. From the text: This activity was neither associated with NdmA nor with NdmB. […] Cloning of NdmC has proven difficult; nevertheless based on the fact that purified His6-NdmD had no activity on 7-methylxanthine, we annotate orf 8 as aanother RO with highly specific N-7 demthylase activity.

The target of experiment [4] is His6-NdmD (Pseudomonas putida, UniProt H9N291). Briefly: N-demethylation by purified His6-NdmD alone. The format is biochemical, Pseudomonas putida CBB5. The method, then: as §1
The subject of experiment [5] is Ndm (methylxanthine N-demethylase) with Ccr reductase.

Structures are written as SMILES.

Sequence of NdmB-His6 (H9N290 whole entry): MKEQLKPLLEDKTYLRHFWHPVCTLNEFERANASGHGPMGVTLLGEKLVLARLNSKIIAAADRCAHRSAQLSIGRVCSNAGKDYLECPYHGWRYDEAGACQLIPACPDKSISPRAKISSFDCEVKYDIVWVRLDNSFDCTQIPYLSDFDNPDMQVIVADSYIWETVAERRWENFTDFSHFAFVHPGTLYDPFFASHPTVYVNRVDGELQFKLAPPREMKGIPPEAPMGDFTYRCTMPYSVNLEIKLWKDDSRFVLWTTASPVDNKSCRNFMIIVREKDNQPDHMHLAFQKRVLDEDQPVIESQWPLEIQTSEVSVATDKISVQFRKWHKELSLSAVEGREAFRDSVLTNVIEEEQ
Sequence of His6-NdmD (H9N291 1-588 with tags or gaps): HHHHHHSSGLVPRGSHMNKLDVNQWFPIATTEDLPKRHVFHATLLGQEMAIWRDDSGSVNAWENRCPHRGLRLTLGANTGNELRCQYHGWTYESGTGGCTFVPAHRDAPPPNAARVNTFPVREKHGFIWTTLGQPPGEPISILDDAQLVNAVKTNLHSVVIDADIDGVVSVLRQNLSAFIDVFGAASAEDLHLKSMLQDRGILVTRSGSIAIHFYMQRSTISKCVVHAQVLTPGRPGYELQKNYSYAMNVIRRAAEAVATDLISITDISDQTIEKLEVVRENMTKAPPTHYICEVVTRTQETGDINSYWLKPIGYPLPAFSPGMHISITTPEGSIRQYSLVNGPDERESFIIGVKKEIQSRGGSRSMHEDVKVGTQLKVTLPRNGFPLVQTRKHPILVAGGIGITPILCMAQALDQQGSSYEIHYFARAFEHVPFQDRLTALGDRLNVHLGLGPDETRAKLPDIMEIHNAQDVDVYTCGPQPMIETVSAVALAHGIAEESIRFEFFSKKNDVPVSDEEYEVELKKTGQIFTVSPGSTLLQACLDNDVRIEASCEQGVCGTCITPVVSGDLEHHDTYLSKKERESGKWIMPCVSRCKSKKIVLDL

In the case of `Cn1cnc2[nH]c(=O)[nH]c(=O)c21` [7-Methylxanthine, 7-methylxanthine], the “N-demethylation activity of NdmA” value in experiment [1] is “inactive”. The Km result in experiment [1] (NdmA-His6 plus His6-NdmD, pH 7.5, 30° C.) is “∞”; in experiment [2] (NdmB-His6 plus His6-NdmD, pH 7.5, 30° C.) it was “∞”; in experiment [5] (read-out: apparent KM, saturating Ccr, 50 μM Fe2+, 30° C., 50 mM KPi pH 7.5), 63.8 ± 7.5 µM. The “N-demethylation activity of NdmB” value in experiment [2] is reported as “no activity”. In addition, the “N-demethylation by NdmC/reductase fraction” value in experiment [3] is “specifically N-demethylated”. Also, the “activity of purified His6-NdmD” value in experiment [4] is “no activity”. The “product formed from paraxanthine” value in experiment [5] (90 minutes, 7.4 mU (7.4 units) of Ndm) came to 126.9 ± 6.4 µM. For the same compound, the N-demethylation product present result in experiment [5] (from paraxanthine, after 13 minutes) is reported as “Approximately 39.9 μM”. In addition, the apparent kcat in experiment [5] (saturating Ccr, 50 μM Fe2+, 30° C., 50 mM KPi pH 7.5) was found to be 1.58 ± 0.05 s⁻¹.
